Assay results reported in PubChem BioAssay (NCI).
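96-well plates; 48 h exposure; 5 concentrations. Endpoints by linear interpolation between flanking doses. Not reached: highest tested concentration assigned. GI50 is the concentration that inhibits growth by half. The concentration for full growth arrest is given as TGI.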

Legend:
Assay in all cases: growth of human tumour cells (NCI), 48 h
786-0 renal = system: 786-0 renal
A498 renal = system: A498 renal
A549 NSCLC = system: A549 NSCLC
ACHN renal = system: ACHN renal
BT-549 breast = system: BT-549 breast
CAKI-1 renal = system: CAKI-1 renal
CCRF-CEM leukemia = system: CCRF-CEM leukemia
COLO 205 colon = system: COLO 205 colon
DU-145 prostate = system: DU-145 prostate
EKVX NSCLC = system: EKVX NSCLC
HCC-2998 colon = system: HCC-2998 colon
HCT-116 colon = system: HCT-116 colon
HCT-15 colon = system: HCT-15 colon
HL-60(TB) leukemia = system: HL-60(TB) leukemia
HOP-62 NSCLC = system: HOP-62 NSCLC
HS 578T breast = system: HS 578T breast
HT29 colon = system: HT29 colon
IGROV1 ovarian = system: IGROV1 ovarian
K-562 leukemia = system: K-562 leukemia
KM12 colon = system: KM12 colon
LOX IMVI melanoma = system: LOX IMVI melanoma
M14 melanoma = system: M14 melanoma
MALME-3M melanoma = system: MALME-3M melanoma
MCF7 breast = system: MCF7 breast
MDA-MB-231 breast = system: MDA-MB-231 breast
MDA-MB-435 = system: MDA-MB-435
MOLT-4 leukemia = system: MOLT-4 leukemia

For `O=C(CN/C=C\C(=O)c1cc(Cl)ccc1Cl)c1ccccc1`, the GI50 (786-0 renal) was 36.1 µM, the TGI (786-0 renal) was > 100 µM and the GI50 (A498 renal) was 23.2 µM. For the same compound, the TGI (A498 renal) was 90.5 µM, the GI50 (A549 NSCLC) was 67 µM and the TGI (A549 NSCLC) was > 100 µM. The GI50 (ACHN renal) was > 100 µM, the TGI (ACHN renal) was > 100 µM and the GI50 (BT-549 breast) was 27.4 µM. For the same compound, the TGI (BT-549 breast) was 74.7 µM, the GI50 (CAKI-1 renal) was 26.6 µM and the TGI (CAKI-1 renal) was 66.2 µM. The GI50 (CCRF-CEM leukemia) was 18.5 µM, the TGI (CCRF-CEM leukemia) was 36.7 µM and the GI50 (COLO 205 colon) was 34.9 µM. For the same compound, the TGI (COLO 205 colon) was > 100 µM, the GI50 (DU-145 prostate) was 33.4 µM and the TGI (DU-145 prostate) was > 100 µM. For the same compound, the GI50 (EKVX NSCLC) was 31.1 µM, the TGI (EKVX NSCLC) was 99.2 µM and the GI50 (HCC-2998 colon) was 19.3 µM. For the same compound, the TGI (HCC-2998 colon) was 47.2 µM, the GI50 (HCT-116 colon) was 21.2 µM and the TGI (HCT-116 colon) was 43.1 µM. It also gave a GI50 (HCT-15 colon) of 18.3 µM, a TGI (HCT-15 colon) of 37.6 µM and a GI50 (HL-60(TB) leukemia) of 73.4 µM. The TGI (HL-60(TB) leukemia) was > 100 µM, the GI50 (HOP-62 NSCLC) was 34.5 µM and the TGI (HOP-62 NSCLC) was > 100 µM. The GI50 (HS 578T breast) was 25.7 µM, the TGI (HS 578T breast) was 61.3 µM and the GI50 (HT29 colon) was 31.6 µM. The TGI (HT29 colon) was > 100 µM, the GI50 (IGROV1 ovarian) was 29.1 µM and the TGI (IGROV1 ovarian) was > 100 µM. For the same compound, the GI50 (K-562 leukemia) was 61.2 µM, the TGI (K-562 leukemia) was > 100 µM and the GI50 (KM12 colon) was 23.8 µM. For the same compound, the TGI (KM12 colon) was 55.3 µM, the GI50 (LOX IMVI melanoma) was 19.8 µM and the TGI (LOX IMVI melanoma) was 35.1 µM. The GI50 (M14 melanoma) was 24 µM, the TGI (M14 melanoma) was 59.6 µM and the GI50 (MALME-3M melanoma) was 25.1 µM. The TGI (MALME-3M melanoma) was 78.3 µM, the GI50 (MCF7 breast) was 22.7 µM and the TGI (MCF7 breast) was 51.9 µM. It also gave a GI50 (MDA-MB-231 breast) of 21.6 µM, a TGI (MDA-MB-231 breast) of 47.5 µM and a GI50 (MDA-MB-435) of 19.2 µM. For the same compound, the TGI (MDA-MB-435) was 45 µM, the GI50 (MOLT-4 leukemia) was > 100 µM and the TGI (MOLT-4 leukemia) was > 100 µM.
